Assay results published in PMC9668969 (Nature Communications, 2022).

Tested on: WT ELIC
Test: Tryptophan fluorescence emission spectrum with and without agonist
Type: biochemical, Erwinia chrysanthemi
Settings: WT 30 mM Cys
Protocol: To measure the tryptophan (Trp) fluorescence emission of ELIC, WT or W206F ELIC was diluted to 3 ml (0.02 mg/ml) and an emission spectrum was collected in a quartz fluorescence cell using a Fluoromax Plus Spectrofluorometer (Horiba Scientific). […] Trp fluorescence measurements with rapid mixing of agonist was carried out using the SX20 stopped-flow spectrofluorometer, outfitted with a 295 nm LED excitation source. Purified ELIC was diluted to 0.1 mg/ml in Trp Stopped-flow Buffer A (10 mM Tris pH 7.5, 100 mM NaCl, 0.05% DDM). A single mixing experiment was performed by mixing ELIC with equal volumes of Buffer A + propylamine. Propylamine was prepared at varying concentrations at 2x the final concentration. The instrument dead time was ~1 ms, enabling capture of most of the time course of change in Trp fluorescence. The time course of decrease in Trp fluorescence after rapid mixing with propylamine was fit to a single exponential to obtain a time constant for the rate of decrease and a measure of the extent of decrease. All replicates were taken from distinct samples.

## NCCS [cysteamine]
Wavelength 320
  Tryptophan fluorescence emission intensity: 804590
Wavelength 321
  Tryptophan fluorescence emission intensity: 840110
Wavelength 322
  Tryptophan fluorescence emission intensity: 860020
Wavelength 323
  Tryptophan fluorescence emission intensity: 881470
Wavelength 324
  Tryptophan fluorescence emission intensity: 898170
Wavelength 325
  Tryptophan fluorescence emission intensity: 925090
Wavelength 327
  Tryptophan fluorescence emission intensity: 958460
Wavelength 328
  Tryptophan fluorescence emission intensity: 977560
Wavelength 329
  Tryptophan fluorescence emission intensity: 1001430
Wavelength 330
  Tryptophan fluorescence emission intensity: 1017700
Wavelength 331
  Tryptophan fluorescence emission intensity: 1038960
Wavelength 332
  Tryptophan fluorescence emission intensity: 1051130
Wavelength 333
  Tryptophan fluorescence emission intensity: 1064180
Wavelength 334
  Tryptophan fluorescence emission intensity: 1076000
Wavelength 335
  Tryptophan fluorescence emission intensity: 1094750
Wavelength 336
  Tryptophan fluorescence emission intensity: 1105230
Wavelength 337
  Tryptophan fluorescence emission intensity: 1102570
Wavelength 338
  Tryptophan fluorescence emission intensity: 1110270
Wavelength 339
  Tryptophan fluorescence emission intensity: 1107370
Wavelength 340
  Tryptophan fluorescence emission intensity: 1100850
Wavelength 341
  Tryptophan fluorescence emission intensity: 1109610
Wavelength 342
  Tryptophan fluorescence emission intensity: 1105480
Wavelength 343
  Tryptophan fluorescence emission intensity: 1098150
Wavelength 344
  Tryptophan fluorescence emission intensity: 1095000
Wavelength 345
  Tryptophan fluorescence emission intensity: 1092160
Wavelength 346
  Tryptophan fluorescence emission intensity: 1088360
Wavelength 347
  Tryptophan fluorescence emission intensity: 1077030
Wavelength 348
  Tryptophan fluorescence emission intensity: 1068840
Wavelength 349
  Tryptophan fluorescence emission intensity: 1066310
Wavelength 350
  Tryptophan fluorescence emission intensity: 1055290
Wavelength 351
  Tryptophan fluorescence emission intensity: 1041270
Wavelength 352
  Tryptophan fluorescence emission intensity: 1036270
Wavelength 353
  Tryptophan fluorescence emission intensity: 1015310
Wavelength 354
  Tryptophan fluorescence emission intensity: 1003150
Wavelength 355
  Tryptophan fluorescence emission intensity: 990040
Wavelength 356
  Tryptophan fluorescence emission intensity: 980580
Wavelength 357
  Tryptophan fluorescence emission intensity: 950350
Wavelength 358
  Tryptophan fluorescence emission intensity: 943630
Wavelength 359
  Tryptophan fluorescence emission intensity: 918190
Wavelength 360
  Tryptophan fluorescence emission intensity: 914380
Wavelength 361
  Tryptophan fluorescence emission intensity: 899440
Wavelength 362
  Tryptophan fluorescence emission intensity: 877520
Wavelength 363
  Tryptophan fluorescence emission intensity: 850800
Wavelength 364
  Tryptophan fluorescence emission intensity: 821470
Wavelength 365
  Tryptophan fluorescence emission intensity: 795670
Wavelength 366
  Tryptophan fluorescence emission intensity: 776390
Wavelength 367
  Tryptophan fluorescence emission intensity: 752920
Wavelength 368
  Tryptophan fluorescence emission intensity: 732340
Wavelength 369
  Tryptophan fluorescence emission intensity: 720880
Wavelength 370
  Tryptophan fluorescence emission intensity: 691880
Wavelength 371
  Tryptophan fluorescence emission intensity: 677380
Wavelength 372
  Tryptophan fluorescence emission intensity: 661530
Wavelength 373
  Tryptophan fluorescence emission intensity: 643370
Wavelength 374
  Tryptophan fluorescence emission intensity: 622610
Wavelength 375
  Tryptophan fluorescence emission intensity: 605580
Wavelength 376
  Tryptophan fluorescence emission intensity: 584360
Wavelength 377
  Tryptophan fluorescence emission intensity: 567600
Wavelength 378
  Tryptophan fluorescence emission intensity: 558770
Wavelength 379
  Tryptophan fluorescence emission intensity: 531360
Wavelength 380
  Tryptophan fluorescence emission intensity: 517880
Wavelength 381
  Tryptophan fluorescence emission intensity: 499820
Wavelength 382
  Tryptophan fluorescence emission intensity: 482620
Wavelength 383
  Tryptophan fluorescence emission intensity: 465090
Wavelength 384
  Tryptophan fluorescence emission intensity: 451150
Wavelength 385
  Tryptophan fluorescence emission intensity: 428430
Wavelength 386
  Tryptophan fluorescence emission intensity: 420060
Wavelength 387
  Tryptophan fluorescence emission intensity: 400770
Wavelength 388
  Tryptophan fluorescence emission intensity: 385350
Wavelength 389
  Tryptophan fluorescence emission intensity: 381600
Wavelength 390
  Tryptophan fluorescence emission intensity: 360170
Wavelength 391
  Tryptophan fluorescence emission intensity: 346400
Wavelength 392
  Tryptophan fluorescence emission intensity: 340740
Wavelength 393
  Tryptophan fluorescence emission intensity: 327660
Wavelength 394
  Tryptophan fluorescence emission intensity: 316470
Wavelength 395
  Tryptophan fluorescence emission intensity: 301980
Wavelength 396
  Tryptophan fluorescence emission intensity: 291020
Wavelength 397
  Tryptophan fluorescence emission intensity: 277640
Wavelength 398
  Tryptophan fluorescence emission intensity: 265940
Wavelength 399
  Tryptophan fluorescence emission intensity: 253020
Wavelength 400
  Tryptophan fluorescence emission intensity: 247580
Wavelength 401
  Tryptophan fluorescence emission intensity: 237600
Wavelength 402
  Tryptophan fluorescence emission intensity: 233050
Wavelength 403
  Tryptophan fluorescence emission intensity: 223960
Wavelength 404
  Tryptophan fluorescence emission intensity: 210930
Wavelength 405
  Tryptophan fluorescence emission intensity: 205250
Wavelength 406
  Tryptophan fluorescence emission intensity: 197950
Wavelength 407
  Tryptophan fluorescence emission intensity: 191160
Wavelength 408
  Tryptophan fluorescence emission intensity: 187280
Wavelength 409
  Tryptophan fluorescence emission intensity: 181840
Wavelength 410
  Tryptophan fluorescence emission intensity: 170220
Wavelength 411
  Tryptophan fluorescence emission intensity: 167400
Wavelength 412
  Tryptophan fluorescence emission intensity: 162070
Wavelength 413
  Tryptophan fluorescence emission intensity: 154720
Wavelength 414
  Tryptophan fluorescence emission intensity: 150730
Wavelength 415
  Tryptophan fluorescence emission intensity: 146270
Wavelength 416
  Tryptophan fluorescence emission intensity: 141050
Wavelength 417
  Tryptophan fluorescence emission intensity: 136250
Wavelength 418
  Tryptophan fluorescence emission intensity: 131260
Wavelength 419
  Tryptophan fluorescence emission intensity: 129580
Wavelength 420
  Tryptophan fluorescence emission intensity: 125310
